Data reported in patent EP4806898A1, “HETEROARYL DERIVATIVE COMPOUND AND USE THEREOF” (Voronoi Inc., priority 2023, dated 2025).
Like-named read-outs stand apart in the source and are kept apart here.

Legend:
UWB1.289 cells = experiment: Cell proliferation inhibitory activity in BRCA1/2-mutant or HRD-positive cells (Cell Titer-Glo); type: cell-based; conditions: UWB1.289 cells, 144 hours after compound treatment, Cell Titer-Glo, 1.5 nM to 10 µM, read-out: GI50 UWB1.289 BRCA1 mut
Procedure: <Experimental Example 2> Evaluation of Cell Proliferation Inhibitory Activity in BRCA1/2-Mutant or HRD-Positive Cells
To evaluate the inhibitory activity of the compound according to the present invention on the proliferation of BRCA1/2 mutants or homologous recombination deficient (HRD) positive cell lines, the following experiments were performed. UWB1.289 cells were cultured in medium (50% MEBM + 50% RPMI1640), and 1,000 cells were seeded in a well plate (black clear bottom 96-well plate, Corning) 16 to 24 hours prior to compound treatment. The compounds were diluted in dimethyl sulfoxide (3-fold serial dilution starting at 10 µM, for a total of 10 concentrations) and injected at 1 µl per well, resulting a final concentration range of […] to 10 µM. Measurements of live cells were performed by a reaction in a 37 °C and CO2 incubator for 144 hours after compound treatment. The cells were incubated for 10 minutes in an incubator using Cell Titer-Glo luminescent cell-viability reagent (Promega), and luminescence intensity thereof was measured using a reader (SynergyNeo2, Biotek). GI50 values were calculated using the GraphPad Prism version 8.4.3 (GraphPad software Inc., San Diego) program.

recombinant USP1 protein = target: T1, recombinant USP1 protein (Homo sapiens, UniProt O94782, DEL125-138/DEL229-408/DEL608-737); experiment: Binding affinity to recombinant USP1 protein by differential scanning fluorimetry; conditions: compound 100 µM; 0.03 mg/mL USP1 (Δ1-66, Δ125-138, Δ229-408, Δ608-737); Tm with compound minus Tm with DMSO; read-out: ΔTm (°C)
T1 sequence (O94782 with tags, fused parts or gaps DEL125-138/DEL229-408/DEL608-737): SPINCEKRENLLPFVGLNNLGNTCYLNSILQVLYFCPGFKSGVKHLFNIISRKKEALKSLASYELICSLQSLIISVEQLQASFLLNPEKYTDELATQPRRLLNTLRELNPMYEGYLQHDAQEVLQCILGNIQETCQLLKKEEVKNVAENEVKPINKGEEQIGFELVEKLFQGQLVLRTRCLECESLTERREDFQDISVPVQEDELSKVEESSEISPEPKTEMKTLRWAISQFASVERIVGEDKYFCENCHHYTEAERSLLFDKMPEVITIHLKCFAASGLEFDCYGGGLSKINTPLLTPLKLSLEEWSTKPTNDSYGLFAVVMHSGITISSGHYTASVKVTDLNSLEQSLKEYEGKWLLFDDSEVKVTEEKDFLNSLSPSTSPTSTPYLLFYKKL
Procedure: <Experimental Example 1> Confirmation and evaluation of the binding affinity to recombinant USP1 protein
To evaluate the binding affinity of the compounds of the present invention to the USP1 protein, the following experiment was performed using differential scanning fluorimetry.
Recombinant 0.03 mg/mL USP1 (Δ1-66, Δ125-138, Δ229-408, Δ608-737) protein, dye reagent, and buffer solution (50 mM Tris-HCl pH 8.0, 150 mM NaCl, 2% glycerol, 1 mM DTT) were mixed and 19 µL of the mixture was dispensed into a well plate (MicroAmp Fast 96-Well Reaction plate, 0.1 mL). Each compound was injected at a final concentration of 100 µM in an amount of 1 µL, and the plate containing a total of 20 µL was sealed with MicroAmp Optical Adhesive Film. The melting temperature (Tm) of the protein in each well was measured using a real-time PCR (RT-PCR) device. The difference between the Tm of the sample containing the compound and the Tm containing DMSO is referred to as delta Tm (ΔTm), where a larger ΔTm value indicates stronger binding affinity. The degree of temperature at which the protein is modified in the presence of the compound compared to DMSO was calculated according to Equation 1 below: [formula]

Row | Compound | ΔTm at 100 µM (recombinant USP1 protein) | GI50 (UWB1.289 cells; UWB1289) | GI50 (UWB1.289 cells)
1 | CNC(=O)c1cc2cnc(-c3cccnc3OC(F)F)nc2n1Cc1ccc(-c2nc(C(F)(F)F)cn2C(C)C)cc1 [Example 178, 2-(2-(difluoromethoxy)pyridin-3-yl)-7-(4-(1-isopropyl-4-(trifluoromethyl)-1H-imidazol-2-yl)benzyl)-N-methyl-7H-pyrrolo[2,3-d]pyrimidine-6-carboxamide] | > 5 °C | < 100 nM | –
2 | COc1ncnc(C2CC2)c1-c1ncc2cc(C(=O)N[C@H](C)CO)n(Cc3ccc(-c4nc(C(F)(F)F)cn4C)cc3)c2n1 [Example 151, (R) -2-(4-cyclopropyl-6-methoxypyrimidin-5-yl)-N-(1-hydroxypropan-2-yl)-7-(4-(1-methyl-4-(trifluoromethyl)-1H-imidazol-2-yl)benzyl)-7H-pyrrolo[2,3-d]pyrimidine-6-carboxamide] | > 5 °C | < 100 nM | –
3 | COc1ncnc(C2CC2)c1-c1ncc2cc(C(=O)NC[C@@H](O)CO)n(Cc3ccc(-c4nc(C(F)(F)F)cn4C)cc3)c2n1 [Example 176, (R) -2-(4-cyclopropyl-6-methoxypyrimidin-5-yl)-N-(2,3-dihydroxypropy 1)-7-(4-(1-methyl-4-(trifluoromethyl)-1H-imidazol-2-yl)benzyl)-7H-pyrrolo[2,3-d]pyrimidine-6-carboxamide] | > 5 °C | 100 to 500 nM | –
4 | COc1ncnc(C2CC2)c1-c1ncc2cc(C(=O)NC[C@H]3CCCN3C)n(Cc3ccc(-c4nc(C(F)(F)F)cn4C(C)C)cc3)c2n1 [Example 136, (R) -2-(4-cyclopropyl-6-methoxypyrimidin-5-yl)-7-(4-(1-isopropyl-4-(trifluoromethyl)-1H-imidazol-2-yl)benzyl)-N-((1-methylpyrrolidin-2-yl)methyl)-7H-pyrrolo[2,3-d]pyrimidine-6-carboxamide] | – | < 100 nM | –
5 | 2-(4-cyclopropyl-6-methoxypyrimid in-5-yl)-N-((3,3-difluorocyclob utyl)methyl) - 7-(4-(1-isopropyl-4-(trifluorometh yl)-1H-imidazol-2-yl)benzyl)-7H-pyrrolo[2,3-d]pyrimidine-6-carboxamide [Example 84] | – | – | 100 to 500 nM
6 | COc1ncnc(C2CC2)c1-c1ncc2cc(C(=O)NC3CCNCC3)n(Cc3ccc(-c4nc(C(F)(F)F)cn4C(C)C)cc3)c2n1 [Example 159, 2-(4-cyclopropyl-6-methoxypyrimidin-5-yl)-7-(4-(1-isopropyl-4-(trifluoromethyl)-1H-imidazol-2-yl)benzyl)-N-(piperidin-4-yl)-7H-pyrrolo[2,3-d]pyrimidine-6-carboxamide] | – | 100 to 500 nM | –
7 | CNC(=O)c1cc2cnc(-c3c(O)ncnc3C3CC3)nc2n1Cc1ccc(-c2nc(C(F)(F)F)cn2C)cc1 [Example 206, 2-(4-cyclopropyl-6-hydroxypyrimidin-5-yl)-N-methyl-7-(4-(1-methyl-4-(trifluoromethyl)-1H-imidazol-2-yl)benzyl)-7H-pyrrolo[2,3-d]pyrimidine-6-carboxamide] | < 5 °C | – | –
8 | CC[C@@H](C)NC(=O)c1cc2cnc(-c3c(OC)ncnc3C3CC3)nc2n1Cc1ccc(-c2nc(C(F)(F)F)cn2C(C)C)cc1 [Example 92, (R)-N-(sec-butyl)-2-(4-cyclopropyl-6-methoxypyrimidin-5-yl)-7-(4-(1-isopropyl-4-(trifluoromethyl)-1H-imidazol-2-yl)benzyl)-7H-pyrrolo[2,3-d]pyrimidine-6-carboxamide] | – | < 100 nM | –
9 | COc1ncnc(C2CC2)c1-c1ncc2cc(C(N)=O)n(Cc3ccc(-c4nc(C(F)(F)F)cn4C)cc3)c2n1 [Example 148, 2-(4-cyclopropyl-6-methoxypyrimidin-5-yl)-7-(4-(1-methyl-4-(trifluoromethyl)-1H-imidazol-2-yl)benzyl)-7H-pyrrolo[2,3-d]pyrimidine-6-carboxamide] | – | < 100 nM | –
10 | COc1ncnc(C2CC2)c1-c1ncc2cc(C(=O)NC3CCN(S(C)(=O)=O)CC3)n(Cc3ccc(-c4nc(C(F)(F)F)cn4C(C)C)cc3)c2n1 [Example 74, 2-(4-cyclopropyl-6-methoxypyrimidin-5-yl)-7-(4-(1-isopropyl-4-(trifluoromethyl)-1H-imidazol-2-yl)benzyl)-N-(1-(methylsulfonyl)piperidin-4-yl)-7H-pyrrolo[2,3-d]pyrimidine-6-carboxamide] | > 5 °C | – | –

Second part, led by results:

Row | ΔTm at 100 µM (recombinant USP1 protein) | Compound | GI50 (UWB1.289 cells; UWB1289) | GI50 (UWB1.289 cells)
11 | > 5 °C | COc1ncnc(C2CC2)c1-c1ncc2cc(C(=O)NCC3(C)CC(F)(F)C3)n(Cc3ccc(-c4nc(C(F)(F)F)cn4C(C)C)cc3)c2n1 [Example 20, 2-(4-cyclopropyl-6-methoxypyrimidin-5-yl)-N-((3,3-difluoro-1-methylcyclobutyl)methyl)-7-(4-(1-isopropyl-4-(trifluoromethyl)-1H-imidazol-2-yl)benzyl)-7H-pyrrolo[2,3-d]pyrimidine-6-carboxamide] | 100 to 500 nM | –
12 | > 5 °C | COc1ncnc(C2CC2)c1-c1ncc2cc(C(=O)NCC(C)=O)n(Cc3ccc(-c4nc(C(F)(F)F)cn4C(C)C)cc3)c2n1 [Example 29, 2-(4-cyclopropyl-6-methoxypyrimidin-5-yl)-7-(4-(1-isopropyl-4-(trifluoromethyl)-1H-imidazol-2-yl)benzyl)-N-(2-oxopropyl)-7H-pyrrolo[2,3-d]pyrimidine-6-carboxamide] | < 100 nM | –
13 | > 5 °C | COc1ncnc(C2CC2)c1-c1ncc2cc(C(=O)N(C)C3COC3)n(Cc3ccc(-c4nc(C(F)(F)F)cn4C(C)C)cc3)c2n1 [Example 111, 2-(4-cyclopropyl-6-methoxypyrimidin-5-yl)-7-(4-(1-isopropyl-4-(trifluoromethyl)-1H-imidazol-2-yl)benzyl)-N-methyl-N-(oxetan-3-yl)-7H-pyrrolo[2,3-d]pyrimidine-6-carboxamide] | 100 to 500 nM | –
14 | > 5 °C | COc1ncnc(C2CC2)c1-c1ncc2cc(C(=O)N3CCCC3(C)C)n(Cc3ccc(-c4nc(C(F)(F)F)cn4C(C)C)cc3)c2n1 [Example 107, (2-(4-cyclopropyl-6-methoxypyrimid in-5-yl)-7-(4-(1-isopropyl-4-(trifluoromethyl)-1H-imidazol-2-yl)benzyl)-7H-pyrrolo[2,3-d]pyrimidin-6-yl)(2,2-dimethylpyrrolidin-1-yl)methanone] | – | –
15 | > 5 °C | COc1ncnc(C2CC2)c1-c1ncc2cc(C(=O)N3CC(C(F)F)C3)n(Cc3ccc(-c4nc(C(F)(F)F)cn4C(C)C)cc3)c2n1 [Example 96, (2-(4-cyclopropyl-6-methoxypyrimid in-5-yl)-7-(4-(1-isopropyl-4-(trifluoromethyl)-1H-imidazol-2-yl)benzyl)-7H-pyrrolo[2,3-d]pyrimidin-6-yl) (3-(difluoromethyl)azetidin-1-yl)methanone] | – | –
16 | > 5 °C | COc1ncnc(C2CC2)c1-c1ncc2cc(C(=O)N3CCNCC3)n(Cc3ccc(-c4nc(C(F)(F)F)cn4C(C)C)cc3)c2n1 [Example 54, (2-(4-cyclopropyl-6-methoxypyrimid in-5-yl)-7-(4-(1-isopropyl-4-(trifluoromethyl)-1H-imidazol-2-yl)benzyl)-7H-pyrrolo[2,3-d]pyrimidin-6-yl) (piperazin-1-yl)methanone] | – | –
17 | > 5 °C | COc1ncnc(C2CC2)c1-c1ncc2cc(C(=O)N[C@H](C)CO)n(Cc3ccc(-c4nc(C(F)(F)F)cn4C(C)C)cc3)c2n1 [Example 81, (R) -2-(4-cyclopropyl-6-methoxypyrimidin-5-yl)-N-(1-hydroxypropan-2-yl)-7-(4-(1-isopropyl-4-(trifluoromethyl)-1H-imidazol-2-yl)benzyl)-7H-pyrrolo[2,3-d]pyrimidine-6-carboxamide] | – | –
